Results taken from PubChem BioAssay (NCI).
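1) Cells in 96-well plates. 2) Compound, 48 h, 5 concentrations. 3) Linear interpolation between surrounding doses. 4) Unreached endpoint = highest concentration. TGI denotes the concentration required for complete inhibition of growth.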

How the values were obtained:
Test in all cases: inhibition of tumour cell growth, NCI panel, 48 h
CAKI-1 renal = system: CAKI-1 renal
EKVX NSCLC = system: EKVX NSCLC
HCT-116 colon = system: HCT-116 colon
HCT-15 colon = system: HCT-15 colon
HOP-92 NSCLC = system: HOP-92 NSCLC
IGROV1 ovarian = system: IGROV1 ovarian
K-562 leukemia = system: K-562 leukemia
M14 melanoma = system: M14 melanoma
MALME-3M melanoma = system: MALME-3M melanoma
MCF7 breast = system: MCF7 breast
MDA-MB-231 breast = system: MDA-MB-231 breast
NCI/ADR-RES ovarian = system: NCI/ADR-RES ovarian
OVCAR-4 ovarian = system: OVCAR-4 ovarian
OVCAR-8 ovarian = system: OVCAR-8 ovarian
SNB-19 CNS = system: SNB-19 CNS
ACHN renal = system: ACHN renal
NCI-H226 lung = system: NCI-H226 lung
NCI-H522 lung = system: NCI-H522 lung
SF-539 CNS = system: SF-539 CNS
SK-MEL-28 melanoma = system: SK-MEL-28 melanoma

SMILES	TGI (CAKI-1 renal)	TGI (EKVX NSCLC)	TGI (HCT-116 colon)	TGI (HCT-15 colon)	TGI (HOP-92 NSCLC)	TGI (IGROV1 ovarian)	TGI (K-562 leukemia)	TGI (M14 melanoma)	TGI (MALME-3M melanoma)	TGI (MCF7 breast)	TGI (MDA-MB-231 breast)	TGI (NCI/ADR-RES ovarian)	TGI (OVCAR-4 ovarian)	TGI (OVCAR-8 ovarian)	TGI (SNB-19 CNS)	TGI (ACHN renal)	TGI (NCI-H226 lung)	TGI (NCI-H522 lung)	TGI (SF-539 CNS)	TGI (SK-MEL-28 melanoma)
C/C(=N\Nc1nc2ccccc2[nH]1)c1cnccn1	14.9 µM	> 34.4 µM	> 38 µM	> 100 µM	2.38 µM	> 38.4 µM	> 100 µM	4.66 µM	> 25.6 µM	> 66.8 µM	> 57.8 µM	21.3 µM	> 100 µM	> 93.3 µM	> 100 µM	–	–	–	–	–
COc1ccc(OC)c(/C=C2\CCc3ccccc3C2=O)c1	> 100 µM	22.7 µM	20.6 µM	29.3 µM	9.32 µM	47.8 µM	10.8 µM	16.3 µM	18.5 µM	–	–	–	22.9 µM	20.2 µM	28.9 µM	81.2 µM	18.6 µM	4.25 µM	9.95 µM	28.1 µM
CSc1ccc(NC(=O)C2c3[nH]c4ccccc4c3C3CCC(C(C)(C)C)CC3C2C(=O)O)cc1 (stereo unspecified)	–	85.3 µM	27.5 µM	> 100 µM	53 µM	51.8 µM	> 100 µM	44.6 µM	46.8 µM	–	–	–	50.1 µM	28.8 µM	80.2 µM	32 µM	33.1 µM	37.4 µM	37.7 µM	60.5 µM
COc1cc([C@@H]2c3cc4c(cc3[C@@H](OC(=O)c3cccc(N)c3)C3COC(=O)[C@@H]32)OCO4)cc(OC)c1O (stereo partly specified)	29.6 µM	> 100 µM	> 100 µM	> 52.6 µM	–	> 64.8 µM	> 100 µM	28.3 µM	> 56.3 µM	–	–	–	> 100 µM	> 100 µM	> 100 µM	15.3 µM	6.09 µM	–	13.8 µM	> 100 µM
O=[N+]([O-])c1cc(N=Nc2c(O)ccc3cc(S(=O)(=O)O)ccc23)c(O)c([N+](=O)[O-])c1	> 100 µM	> 100 µM	> 100 µM	> 100 µM	> 100 µM	> 100 µM	> 100 µM	> 100 µM	> 100 µM	–	> 100 µM	> 100 µM	> 100 µM	> 100 µM	> 100 µM	> 100 µM	> 100 µM	> 100 µM	–	> 100 µM
CC1=NN2C(c3ccc([N+](=O)[O-])cc3)=CSC2=NC(C)(C)C1	–	> 100 µM	> 100 µM	> 100 µM	> 100 µM	> 100 µM	> 100 µM	> 100 µM	> 100 µM	–	–	–	> 100 µM	> 100 µM	> 100 µM	> 100 µM	> 100 µM	> 100 µM	> 100 µM	> 100 µM
Nc1nc(N)c2ncn(CCOC(c3ccccc3)P(=O)(O)O)c2n1 (stereo unspecified)	> 100 µM	> 100 µM	> 100 µM	> 100 µM	–	> 100 µM	–	–	> 100 µM	–	–	–	–	> 100 µM	> 100 µM	> 100 µM	> 100 µM	> 100 µM	> 100 µM	> 100 µM
S=C(N/N=C/c1ccccn1)N1CC2CCC(CC2)C1	1.82 µM	7.05 µM	3.88 µM	14.9 µM	13.9 µM	–	–	0.209 µM	11.4 µM	–	–	–	20.4 µM	0.252 µM	14.3 µM	2.15 µM	1.53 µM	3.64 µM	0.287 µM	17.4 µM
O=c1oc2ccccc2c(O)c1C(c1ccc(-c2ccccc2)cc1)c1c(O)c2ccccc2oc1=O	39.4 µM	> 100 µM	79.1 µM	40 µM	48.5 µM	> 100 µM	> 100 µM	–	65 µM	–	48.8 µM	58.6 µM	> 100 µM	34.1 µM	> 100 µM	60.4 µM	69 µM	66.7 µM	–	32 µM
Cc1c2ccncc2c(C)c2c1[nH]c1ccc(Oc3ccccc3)cc12	> 100 µM	> 100 µM	–	–	13.9 µM	42.4 µM	4.01 µM	–	3.58 µM	–	–	–	10.5 µM	3.48 µM	46.1 µM	17.3 µM	37.6 µM	–	3.13 µM	9.67 µM
Cn1c2ccccc2c2ccc3c(c21)C(=O)C(c1ccccc1)=CC3=O	> 100 µM	75.2 µM	38.2 µM	22.2 µM	56.2 µM	39.3 µM	> 100 µM	> 100 µM	84.4 µM	–	–	–	–	42.6 µM	> 100 µM	> 100 µM	40.7 µM	40.2 µM	47.2 µM	51 µM
N#Cc1ccc(Oc2ccccc2)cc1C#N	> 100 µM	> 100 µM	> 100 µM	43.3 µM	> 100 µM	> 100 µM	> 100 µM	> 100 µM	> 100 µM	–	–	–	> 100 µM	> 100 µM	> 100 µM	> 100 µM	> 100 µM	57.2 µM	> 100 µM	> 100 µM
CC1(C)c2ccccc2N2O[C@@H]3C(=O)N(c4ccccc4)C(=O)[C@@H]3C21c1ccccc1 (stereo partly specified)	> 100 µM	> 100 µM	–	> 100 µM	–	> 100 µM	> 100 µM	> 100 µM	> 100 µM	–	–	–	–	> 100 µM	> 100 µM	–	> 100 µM	> 100 µM	> 100 µM	> 100 µM
CC1(C)Cc2c(oc3ncnc(N)c23)CS1	> 100 µM	> 100 µM	> 100 µM	> 100 µM	–	> 100 µM	> 100 µM	> 100 µM	> 100 µM	–	–	–	> 100 µM	> 100 µM	> 100 µM	> 100 µM	> 100 µM	> 100 µM	> 100 µM	–
O=C1c2ccccc2C(=O)c2c(NC(=O)C3CC3)ccc(NC(=O)C3CC3)c21	–	> 100 µM	> 100 µM	> 100 µM	–	> 100 µM	> 100 µM	–	> 100 µM	> 100 µM	> 100 µM	> 100 µM	–	> 100 µM	> 100 µM	> 100 µM	–	> 100 µM	> 100 µM	> 100 µM
